From patent publication US12466818B2, “Thienyl-aniline compounds for treatment of dermal disorders” (NFlection Therapeutics, Inc., priority 2018, dated 2025) come the findings set out here.

Series [1] relates to HCT116 cells. As to the kind of experiment: Assay 3: HCT116 (Kras) GI50 assay (Cell Titer-Glo). It is filed as cell-based. Conditions: Homo sapiens, HCT-116, 72 hours. The protocol:
(§1) Alternatively, the following procedure can be used to measure cell-based activity. Test compounds were dissolved in DMSO in 10 mM stock. Cell Titer-Glo® 2.0 Luminescent cell viability assay reagent was purchased from Promega (Madison, WI). A375 and HCT116 cell lines were purchased from American Type Culture Collection (Manassas, VA). For A375 cells, cell culture media was DMEM+10% FBS. For HCT116 cells, cell culture media was McCoy's 5A+10% FBS. All media were supplemented with 100 μg/mL of penicillin, and 100 μg/mL of streptomycin. Cultures were maintained at 37° C. in a humidified atmosphere of 5% CO2 and 95% air.
(§2) Test compounds were diluted in DMSO solution with 10-dose and 3-fold dilutions in a source plate starting at 10 mM. 25 nL of each test compound was delivered from the source plate to each well of the 384-well cell culture plates (T=Final) by Echo 550. 25 μL of culture medium containing 2000 of A375 or HCT116 cells was added to each of the wells in duplicates of the cell culture plates (T=0 and T=Final). 25 μL of Cell Titer Glo 2.0 reagent was added to each well of cell culture plate (T=0). The contents were mixed on an orbital shaker for 2 min and incubated at room temperature for 15 min to stabilize luminescent signal. Luminescence was recorded by Envision 2104 Multilabel Reader (PerkinElmer, Santa Clara, CA). The number of viable cells in culture was determined based on quantitation of the ATP present in each culture well. The cells in cell culture plate (T=Final) were incubated with the compounds at 37° C., 5% CO2 for 72 hours. 25 μL of Cell Titer Glo 2.0 reagent was added to each well. The contents were mixed on an orbital shaker for 2 min and incubated at room temperature for 15 min to stabilize luminescent signal. Luminescence was recorded by Envision 2104 Multilabel Reader (PerkinElmer, Santa Clara, CA). The number of viable cells in culture was determined based on quantitation of the ATP present in each culture well. The GI50 curves were plotted using the GraphPad Prism 4 program based on a sigmoidal dose-response equation Y=Bottom+(Top-Bottom)/(1+10^((Log EC50−X)*HillSlope)). All parameters in the equation were calculated by GraphPad Prism 4 program. […] Accordingly, GI50 is the value of 10^X, where X was calculated by the Curve Fitting Equation when Y=50 using Excel.
Assay 3 is the HCT116 (Kras) GI50 (nM) assay as described in Example 39. A3 indicates an IC50 of less than or equal to 5 μM, and B3 indicates an IC50 of greater than 5 μM and less than or equal to 10 μM.
(Cellular ATP, detected with luciferase, serves as a proxy for viable cell number.)

For series [2], the system named is A375 cells. In words: Assay 2: A375 (BRAF) GI50 cell-based assay (Cell Titer-Glo). The conditions noted are these: Homo sapiens, A-375, 72 hours. The protocol: as §1, §2
Assay 2 is the A375 (BRAF) GI50 (nM) cell-based assay as described in Example 39. A2 indicates an IC50 of less than or equal to 1 μM, and B2 indicates an IC50 of greater than 1 μM and less than or equal to 2 μM.

For series [3], the target named is MEK1 (Homo sapiens (Human), UniProt Q02750). In words: MEK Inhibition Assay-2 (Z'-LYTE biochemical assay). The conditions noted are these: Z'-LYTE assay of Example 37; read-out: IC50 against MEK1. The protocol:
MEK1 inhibitory activity of compounds were tested using the following procedure (protocol available at thermofisher.com/content/dam/LifeTech/migration/files/drug-discovery/pdfs.par.60256.file.dat/20130430%20ssbk %20customer %20protocol %20 and %20assa y %20conditions.pdf). The Z′-LYTE biochemical assay (ThermoFisher) employs a fluorescence-based, coupled-enzyme format and is based on the differential sensitivity of phosphorylated and non-phosphorylated peptides to proteolytic cleavage.
Test compounds in 100% DMSO were screened in 1% DMSO (final) in the well. For 10 point titrations, 3-fold serial dilutions are conducted from the starting concentration of 30 μM.
After the 1 hour incubation, 5 μL of a 1:1024 dilution of Development Reagent A (available from Invitrogen, catalog no. PV3295) was added.
ATP solutions were diluted to a 4× working concentration in Kinase Buffer (50 mM HEPES pH 7.5, 0.01% BRIJ-35, 10 mM MgCl2, 1 mM EGTA). ATP Km apparent was previously determined using a Z′-LYTE assay. The Development Reagent was diluted in Development Buffer (available from Invitrogen, catalog no. P3127).
Assay Protocol: 2.5 μL of 4× test compound or 100 nL of 100× Test Compound plus 2.4 μL Kinase Buffer, 5 μL of the 2× Peptide/Kinase Mixture, 2.5 μL of 4×ATP Solution were added to the plates and placed on a shake plate for 30-seconds. The kinase reaction was allowed to proceed for 60-minute at room temperature, before 5 μL of Development Reagent Solution was added, and the mixture agitated for 30-seconds on a shake plate. The mixture was incubated for 60-minute at room temperature. Fluorescence was measured using a plate reader and the data were analyzed.
This control yielded 100% cleaved peptide in the Development Reaction. The 100% Phosphorylation Control, which consisted of a synthetically phosphorylated peptide of the same sequence as the peptide substrate, was designed to allow for the calculation of percent phosphorylation. This control yielded a very low percentage of cleaved peptide in the Development Reaction. The 0% Phosphorylation and 100% Phosphorylation Controls allow for the calculation of the percent phosphorylation achieved in a specific reaction well.
The minimum emission ratio in a screen was established by the 0% Inhibition Control, which contained active kinase. This control was designed to produce a 10-50% phosphorylated peptide in the Kinase Reaction. Cascade assays may produce up to 70% phosphorylated peptide.
A known inhibitor control standard curve, 10 point titration, was run for each individual kinase on the same plate as the kinase to ensure the kinase was inhibited within an expected IC50 range previously determined.
The following controls are prepared for each concentration of Test Compound assayed. […] The expected value for a non-interfering compound should be 100%. Any value outside of 90% to 110% was flagged. […] The expected value for a non-fluorescence compound should be 0%. Any value>20% was flagged.
The data in Table A was calculated. XLfit from IDBS was used. The dose response curve was curve fit to model number 205 (sigmoidal dose-response model).
Table 3 lists the MEK1 inhibition assay results of selected compounds according to the above procedure.

Series [4] can be described thus: Assay 5: skin S9 half-life stability assay. The conditions noted are these: skin S9 fraction, pH 7.4; human skin S9, 1 μM test compound, NADPH. It is filed as in vitro ADME. The protocol: (§3) Compounds can be assessed for metabolic stability in human skin by assessing their rate of disappearance from human S9 skin fraction. Similarly, compounds can be assessed for metabolic stability in human liver by assessing their rate of disappearance from human S9 liver fraction. The protocol below is used to assess the difference between skin and hepatic metabolism.
(§4) The assay was carried out in 96-well microtiter plates at 37° C. Reaction mixtures (25 μL) contained a final concentration of 1 μM test compound, 2 mg/mL liver or skin protein, and 1 mM NADPH in buffer (100 mM potassium phosphate, pH 7.4 buffer with 1 mM EDTA, 3 mM MgCl2). At each of the time points (0, 15, 30, and 60 minutes), 150 μL, of quench solution (100% acetonitrile with 0.1% formic acid) with internal standard was transferred to each well. […]
(§5) All samples were analyzed on LC/MS/MS using an AB Sciex API 4000 instrument, coupled to a Shimadzu LC-20AD LC Pump system. […]
(§6) The extent of metabolism was calculated as the disappearance of the test compound, compared to the 0-min control reaction incubations. Initial rates were calculated for the compound concentration and used to determine tin values and subsequently, the intrinsic clearance, CLint=(0.693)(1/t1/2 (min)) (mL incubation/mg of S9 protein). […]

Series [5] is described as follows: Assay 6: liver microsomes half-life stability assay. Conditions: pH 7.4; human liver microsomes, 1 μM test compound, NADPH. It is filed as in vitro ADME. As for the experimental part:
Metabolic stability of testing compound can be evaluated using human liver microsomes to predict intrinsic clearance. Human liver microsomes are obtained from Corning Gentest.
The assay was carried out in 96-well microtiter plates at 37° C. Reaction mixtures (25 μL) contain a final concentration of 1 μM test compound, 0.5 mg/mL liver microsomes protein, and 1 mM NADPH in buffer (100 mM potassium phosphate, pH 7.4 buffer with 3 mM MgCl2). At each of the time points (0, 15, 30, and 60 minutes), 150 μL of quench solution (100% acetonitrile with 0.1% formic acid) with internal standard was transferred to each well. Verapamil was included as a positive control to verify assay performance. Plates were sealed and centrifuged at 4° C. for 15 minutes at 4000 rpm. The supernatant was transferred to fresh plates for LC/MS/MS analysis.
as §5
The extent of metabolism was calculated as the disappearance of the test compound, compared to the 0-min time incubation. Initial rates were calculated for the compound concentration and used to determine t1/2 values and subsequently, the intrinsic clearance, CLint=(0.693)(1/t1/2 (min))(g of liver/kg of body weight)(mL incubation/mg of microsomal protein)(45 mg of microsomal protein/g of liver weight). […]

A short description of series [6]: Assay 4: liver S9 half-life stability assay. It is filed as in vitro ADME. Conditions: liver S9 fraction, pH 7.4; human liver S9, 1 μM test compound, NADPH. The protocol: as §3, §4, §5, §6

Structures can show the parent of a compound that is named as a salt.

Sequence of MEK1 (Q02750 whole entry): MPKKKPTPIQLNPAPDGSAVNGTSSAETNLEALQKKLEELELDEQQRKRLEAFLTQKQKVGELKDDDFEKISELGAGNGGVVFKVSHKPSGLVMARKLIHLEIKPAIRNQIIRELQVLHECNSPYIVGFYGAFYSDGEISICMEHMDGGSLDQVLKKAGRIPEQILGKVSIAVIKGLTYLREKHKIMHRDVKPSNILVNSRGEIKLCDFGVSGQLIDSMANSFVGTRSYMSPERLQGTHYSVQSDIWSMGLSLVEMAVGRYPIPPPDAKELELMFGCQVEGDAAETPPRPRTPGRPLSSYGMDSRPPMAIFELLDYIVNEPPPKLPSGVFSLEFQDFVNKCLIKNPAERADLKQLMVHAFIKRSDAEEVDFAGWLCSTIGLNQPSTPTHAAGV

A word on the GI50: it is the concentration giving 50% growth inhibition. As to `CC(=O)c1sc(Nc2ccc(I)cc2F)c(C(=O)NCC(C)(C)N)c1C` [Compound 1.020], the figures for the GI50 in series [1] and in series [2] were 5 to 10 µM and not above 1 µM, respectively.
Usually IC50 stands for the midpoint of a concentration-inhibition curve. `NCCONC(=O)c1c(Nc2ccc(I)cc2F)sc2c1CCCC2=O` [Compound 1.033, N-(2-Aminoethoxy)-2-(2-fluoro-4-iodophenylamino)-7-oxo-4,5,6,7-tetrahydrobenzo[b]thiophene-3-carboxamide hydrochloride]: the IC50 in series [3] is not above 0.15 µM.
As for `O=C1CCCc2c1sc(Nc1ccc(I)cc1F)c2C(=O)NOCC1CC1` [Compound 1.032, N-(Cyclopropylmethoxy)-2-((2-fluoro-4-iodophenyl)amino)-7-oxo-4,5,6,7-tetrahydrobenzo[b]thiophene-3-carboxamide], the results for the GI50 in series [1] and in series [2] were not above 5 µM and not above 1 µM, respectively. In addition, the IC50 in series [3] was not above 0.15 µM.
Turning to `O=C1CCCc2c1sc(Nc1ccc(I)cc1F)c2C(=O)NOC[C@H](O)CO` [Compound 1.030, (R)—N-(2,3-Dihydroxypropoxy)-2-((2-fluoro-4-iodophenyl)amino)-7-oxo-4,5,6,7-tetrahydrobenzo[b]thiophene-3-carboxamide], in series [3], the IC50 was not above 0.15 µM.
As to `CC(=O)c1sc(Nc2ccc(I)cc2F)c(C(=O)N[C@@H]2CCNC2)c1C` [Compound 1.017, (R)-5-acetyl-2-((2-fluoro-4-iodophenyl)amino)-4-methyl-N-(pyrrolidin-3-yl)thiophene-3-carboxamide], the GI50 is not above 5 µM in series [1] and 1 to 2 µM in series [2].
Take `CC(=O)c1sc(Nc2ccc(I)cc2F)c(C(=O)N[C@@H]2CCCNC2)c1C` [Compound 1.016, (R)-5-acetyl-2-((2-fluoro-4-iodophenyl)amino)-4-methyl-N-(piperidin-3-yl)thiophene-3-carboxamide]: the GI50 in series [1] is not above 5 µM; in series [2], 1 to 2 µM.
For `O=C1CCCc2c1sc(Nc1ccc(I)cc1F)c2C(=O)NC[C@@H](O)CO` [Compound 1.035, (R)—N-(2,3-dihydroxypropyl)-2-((2-fluoro-4-iodophenyl)amino)-7-oxo-4,5,6,7-tetrahydrobenzo[b]thiophene-3-carboxamide], the IC50 in series [3] was not above 0.15 µM.
In the case of `CC(=O)c1sc(Nc2ccc(I)cc2F)c(C(=O)NOCC2CC2)c1C` [Compound 1.023], the GI50 was 5 to 10 µM in series [1] and not above 1 µM in series [2].
Regarding `O=C1CCCc2c1sc(Nc1ccc(I)cc1F)c2C(=O)NC[C@H](O)CO` [Compound 1.034, (S)—N-(2,3-dihydroxypropyl)-2-((2-fluoro-4-iodophenyl)amino)-7-oxo-4,5,6,7-tetrahydrobenzo[b]thiophene-3-carboxamide], the IC50 in series [3] is not above 0.15 µM.
What is called half-life is how long it takes for the measured level to halve. A lower half-life goes with rapid decline. `CC(=O)c1sc(Nc2ccc(I)cc2F)c(C(=O)NOCCO)c1C` [Compound 1.013, 5-Acetyl-2-((2-fluoro-4-iodophenyl)amino)-N-(2-hydroxyethoxy)-4-methylthiophene-3-carboxamide]: the GI50 in series [1] was not above 5 µM; in series [2] it was not above 1 µM. The figures for the half-life at 1 μM in series [4], in series [5] and in series [6] were not below 400 min, not above 50 min and not above 50 min, respectively.
